From patent EP0531938B1, “Acrylic gel material and gel-based medical preparation for percutaneous absorption employing the same” (NITTO DENKO CORPORATION, priority 1991, dated 1993)

Assay: Solubility of drug in pressure-sensitive adhesive and in liquid component
Type: physicochemical
Settings: percent by weight

With `O=[N+]([O-])O[C@H]1CO[C@H]2[C@@H]1OC[C@H]2O[N+](=O)[O-]` [isosorbide dinitrate] the “solubility in the pressure-sensitive adhesive” value (adhesive of Comparative Example 15 (95 parts 2-ethylhexyl acrylate, 5 parts acrylic acid)) was 7% and the “solubility in isopropyl myristate” value was 2.1%.
